# Assays:
# Type in all cases: cell-based
# [1] = system: HCV 1a RLuc cells (dicistronic genotype 1a H77 replicon, RLuc reporter); test: microbe, parasite or virus in culture; conditions: Hepatitis C virus, genotype 1a replicon; read-out: 1a
# In short: (§1)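 Renilla luciferase HCV replicon cells: dicistronic 1b Con1, 1a H77 or 2a JFH-1 replicons, or a JFH-1 chimera carrying J6 NS5A (M31 present). Compound in DMSO serial dilutions, 72 h incubation, then lysis and luciferase read. EC50 by non-linear regression.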
# [2] = system: HCV 1b RLuc cells (dicistronic genotype 1b Con1 replicon, RLuc reporter); test: microbe, parasite or virus in culture; conditions: Hepatitis C virus, read-out: 1b (nM)
# In short: as §1
# [3] = system: HCV 2a JFH-1 Rluc cells (dicistronic genotype 2a JFH-1 replicon, RLuc reporter); test: microbe, parasite or virus in culture; conditions: Hepatitis C virus, genotype 2a JFH-1 replicon; read-out: 2a JFH
# In short: as §1
# [4] = system: HCV 2b Rluc cells (NS5A chimeric genotype 2a JFH-1 replicon with genotype 2b MD2b-1 NS5A gene, M31 present); test: microbe, parasite or virus in culture; conditions: Hepatitis C virus, read-out: 2b
# In short: (§2)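 Replicon cells stably carrying the listed RLuc-encoding dicistronic replicons were seeded and treated with DMSO serial dilutions of compound (10 mM stocks) diluted into culture medium. After 72 h, cells were lysed and Renilla luciferase activity measured. EC50 was derived by non-linear regression.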
# [5] = system: HCV 3a RLuc cells (NS5A chimeric genotype 1b Con1 replicon with consensus genotype 3a NS5A gene); test: microbe, parasite or virus in culture; conditions: Hepatitis C virus, read-out: 3a, genotype 3a replicon
# In short: as §2
# [6] = system: HCV 4a Rluc cells (NS5A chimeric genotype 1b Con1 replicon with genotype 4a NS5A gene); test: microbe, parasite or virus in culture; conditions: Hepatitis C virus, read-out: 4a
# In short: as §2
# [7] = system: HCV 2a Rluc cells (NS5A chimeric genotype 2a JFH-1 replicon with genotype 2a J6 strain NS5A gene, M31 present); test: HCV replicon reporter assay, genotype 2a J6 (M31 present); conditions: Hepatitis C virus, read-out: 2a J6
# In short: as §1
Structure (SMILES),EC50 [1] [nM],EC50 [2] [nM],EC50 [3] [nM],EC50 [4] [nM],EC50 [5] [nM],EC50 [6] [nM],EC50 [7] [nM]
COC(=O)N[C@H](C(=O)N1CCC[C@H]1c1nc2ccc3cc(-c4ccc5cc(-c6[nH]c([C@@H]7CCCN7C(=O)[C@H](NC(=O)OC)c7ccccc7)nc6Cl)ccc5c4)ccc3c2[nH]1)C(C)C [Example 385],0.001 to 0.999,0.007,0.001 to 0.999,1 to 44,0.001 to 0.99,0.001 to 0.99,1 to 44
COC(=O)N[C@H](C(=O)N1CCC[C@H]1c1nc(Cl)c(-c2ccc(-c3ccc4c(ccc5nc([C@@H]6[C@H]7CC[C@H](C7)N6C(=O)[C@@H](NC(=O)OC)C(C)C)[nH]c54)c3)cc2)[nH]1)C(C)C [Example 386],0.001 to 0.999,0.015,0.001 to 0.999,> 44,0.001 to 0.99,0.001 to 0.99,> 44
COC(=O)N[C@H](C(=O)N1CC2(CC2)C[C@H]1c1nc2ccc3cc(-c4ccc(-c5cnc([C@@H]6[C@H]7CC[C@H](C7)N6C(=O)[C@@H](NC(=O)OC)C(C)C)[nH]5)cc4)ccc3c2[nH]1)C(C)C [Example 387],0.001 to 0.999,0.009,0.001 to 0.999,> 44,0.001 to 0.99,0.001 to 0.99,> 44
COC(=O)N[C@H](C(=O)N1CCC[C@H]1c1nc2ccc3cc(-c4ccc(-c5[nH]c([C@@H]6[C@H]7CC[C@H](C7)N6C(=O)[C@@H](NC(=O)OC)C(C)C)nc5Cl)cc4)ccc3c2[nH]1)C(C)C [Example 388],0.001 to 0.999,0.008,0.001 to 0.999,> 44,0.001 to 0.99,0.001 to 0.99,> 44
COC(=O)N[C@H](C(=O)N1[C@@H]2C[C@@H]2C[C@H]1c1nc(Cl)c(-c2ccc(-c3ccc4c(ccc5nc([C@@H]6C[C@H]7C[C@H]7N6C(=O)[C@@H](NC(=O)OC)C(C)C)[nH]c54)c3)cc2F)[nH]1)C(C)C [Example 395],0.001 to 0.999,0.004,0.001 to 0.999,> 44,0.001 to 0.99,0.001 to 0.99,> 44
COC(=O)N[C@H](C(=O)N1CCC[C@H]1c1ncc(-c2ccc3c(c2)COc2c-3ccc3c2ccc2nc([C@@H]4CCCN4C(=O)[C@@H](NC(=O)OC)C(C)C)[nH]c23)[nH]1)C(C)C [Example 400],0.001 to 0.999,0.017,0.001 to 0.999,> 44,0.001 to 0.99,0.001 to 0.99,> 44
COC(=O)N[C@H](C(=O)N1CCC[C@H]1c1nc2ccc3cc(-c4ccc5c(ccc6nc([C@@H]7CCCN7C(=O)[C@H](NCC(F)(F)F)c7ccccc7)[nH]c65)c4)ccc3c2[nH]1)C(C)C [Example 403],0.001 to 0.999,0.014,0.001 to 0.999,0.001 to 0.999,0.001 to 0.99,0.001 to 0.99,0.001 to 0.999
COC(=O)N[C@H](C(=O)N1CCC[C@H]1c1ncc(-c2cc3c4c(ccc5cc(-c6cnc([C@@H]7CCCN7C(=O)[C@@H](NC(=O)OC)C(C)C)[nH]6)cc(c54)OC3)c2)[nH]1)C(C)C [Example 408],0.001 to 0.999,0.022,0.001 to 0.999,> 44,0.001 to 0.99,0.001 to 0.99,> 44
COC(=O)N[C@H](C(=O)N1CCC[C@H]1c1ncc(-c2ccc(-c3ccc4c(ccc5nc([C@@H]6[C@H]7CC[C@H](C7)N6C(=O)[C@H](NC(=O)OC)c6ccccc6)[nH]c54)c3)cc2)[nH]1)C(C)C [Example 410],0.001 to 0.999,0.018,0.001 to 0.999,> 44,0.001 to 0.99,0.001 to 0.99,1 to 44
COC(=O)N[C@H](C(=O)N1CC2(C[C@H]1c1nc3ccc4cc(-c5ccc(-c6cnc([C@@H]7CCCN7C(=O)[C@H](NC(=O)OC)c7ccccc7)[nH]6)cc5)ccc4c3[nH]1)OCCO2)C(C)C [Example 411],0.001 to 0.999,0.034,0.001 to 0.999,1 to 44,0.001 to 0.99,0.001 to 0.99,1 to 44
COC(=O)N[C@H](C(=O)N1CCC[C@H]1c1nc2ccc3c4c(ccc3c2[nH]1)-c1ccc(-c2cnc([C@@H]3CCCN3C(=O)[C@H](NC(=O)OC)c3ccccc3)[nH]2)cc1CO4)C(C)C [Example 412],0.001 to 0.999,0.018,0.001 to 0.999,0.001 to 0.999,0.001 to 0.99,0.001 to 0.99,1 to 44
COC(=O)N[C@H](C(=O)N1CCC[C@H]1c1ncc(-c2ccc3c(c2)COc2c-3ccc3c2ccc2nc([C@@H]4CCCN4C(=O)[C@H](NC(=O)OC)c4ccccc4)[nH]c23)[nH]1)C(C)C [Example 413],0.001 to 0.999,0.017,0.001 to 0.999,1 to 44,0.001 to 0.99,0.001 to 0.99,1 to 44
COC[C@H]1C[C@@H](c2nc3ccc4cc(-c5ccc(-c6cnc([C@@H]7CCCN7C(=O)[C@H](NC(=O)OC)c7ccccc7)[nH]6)cc5)ccc4c3[nH]2)N(C(=O)[C@@H](NC(=O)OC)C(C)C)C1 [Example 415],0.001 to 0.999,0.034,0.001 to 0.999,0.001 to 0.999,0.001 to 0.99,0.001 to 0.99,0.001 to 0.999
COC(=O)N[C@H](C(=O)N1CCC[C@H]1c1nc2ccc3cc(-c4ccc5c(ccc6nc([C@@H]7C[C@H](C#N)CN7C(=O)[C@@H](NC(=O)OC)C(C)C)[nH]c65)c4)ccc3c2[nH]1)C(C)C [Example 416],0.001 to 0.999,0.043,0.001 to 0.999,1 to 44,0.001 to 0.99,0.001 to 0.99,0.001 to 0.999
COC[C@H]1C[C@@H](c2nc3ccc4cc(-c5ccc(-c6cnc([C@@H]7CCCN7C(=O)[C@@H](NC(=O)OC)C(C)C)[nH]6)cc5)ccc4c3[nH]2)N(C(=O)[C@@H](NC(=O)OC)C(C)C)C1 [Example 417],0.001 to 0.999,0.024,0.001 to 0.999,1 to 44,0.001 to 0.99,0.001 to 0.99,1 to 44
CC(=O)N[C@@H](C(=O)N1CCC[C@H]1c1ncc(-c2cc3c4c(c2)OCc2cc(-c5cnc([C@@H]6CCCN6C(=O)[C@H](NC(C)=O)c6ccccc6)[nH]5)cc(c2-4)OC3)[nH]1)c1ccccc1 [Example 419],1 to 44,0.786,0.001 to 0.999,0.001 to 0.999,0.001 to 0.99,0.001 to 0.99,0.001 to 0.999
COC(=O)NC(C(=O)N1CCC[C@H]1c1ncc(-c2cc3c4c(c2)OCc2cc(-c5[nH]c([C@@H]6CCCN6C(=O)C(NC(=O)OC)c6cccnc6)nc5Cl)cc(c2-4)OC3)[nH]1)c1cccnc1 (stereo partly shown) [Example 420],1 to 44,4.66,0.001 to 0.999,1 to 44,0.001 to 0.99,1 to 4.99,1 to 44
COC(=O)N[C@@H](C(=O)N1CCC[C@H]1c1nc(Cl)c(-c2cc3c4c(c2)OCc2cc(-c5[nH]c([C@@H]6CCCN6C(=O)[C@H](NC(=O)OC)c6ccccc6)nc5Cl)cc(c2-4)OC3)[nH]1)c1ccccc1 [Example 421],0.001 to 0.999,0.041,0.001 to 0.999,0.001 to 0.999,0.001 to 0.99,0.001 to 0.99,0.001 to 0.999
COC(=O)N[C@H](C(=O)N1CCC[C@H]1c1nc2ccc3cc(-c4ccc5c(ccc6nc([C@@H]7C[C@@H]8CCC[C@@H]8N7C(=O)[C@@H](NC(=O)OC)C(C)C)[nH]c65)c4)ccc3c2[nH]1)C(C)C [Example 428],0.001 to 0.999,0.011,0.001 to 0.999,1 to 44,0.001 to 0.99,0.001 to 0.99,0.001 to 0.999
COC(=O)N[C@H](C(=O)N1CCC[C@H]1c1nc2ccc3cc(-c4ccc5c(ccc6nc([C@@H]7[C@@H]8CC[C@@H](C8)N7C(=O)[C@H](NC(=O)OC)c7ccccc7)[nH]c65)c4)ccc3c2[nH]1)C(C)C [Example 429],0.001 to 0.999,0.033,0.001 to 0.999,1 to 44,0.001 to 0.99,0.001 to 0.99,1 to 44
CN(C)C(=O)N[C@@H](C(=O)N1CCC[C@H]1c1ncc(-c2cc3c4c(c2)OCc2cc(-c5cnc([C@@H]6CCCN6C(=O)[C@H](NC(=O)N(C)C)c6ccccc6)[nH]5)cc(c2-4)OC3)[nH]1)c1ccccc1 [Example 431],0.001 to 0.999,0.436,0.001 to 0.999,0.001 to 0.999,0.001 to 0.99,0.001 to 0.99,0.001 to 0.999
COC(=O)N[C@H](C(=O)N1CCC[C@H]1c1nc2ccc3cc(-c4ccc(-c5cnc([C@@H]6CCCN6C(=O)[C@H](NC(=O)OC)c6ccccc6)[nH]5)cc4C#Cc4ccccc4)ccc3c2[nH]1)C(C)C [Example 439],0.001 to 0.999,0.004,0.001 to 0.999,> 44,0.001 to 0.99,0.001 to 0.99,1 to 44

# Source: patent publication US10344019B2 (priority 2010, dated 2019)
